Measured values published in patent publication US20240025856A1, “1,2,3,4-TETRAHYDROQUINOLINE DERIVATIVES AS INHIBITORS OF THE YAP/TAZ-TEAD ACTIVATION FOR TREATING CANCER” (KATHOLIEKE UNIVERSITEIT LEUVEN, priority 2020, published 2024).

test system: YAP/TAZ-TEAD transcription; test: Reporter gene assay for measuring the inhibition of YAP/TAZ-TEAD transcription (TEAD-responsive element luciferase reporter in Hek293T cells); assay type: cell-based; conditions: Hek293T cells transiently transfected with TEAD-responsive element luciferase reporter; 24 hours incubation
Method in brief: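 Hek293T cells transiently transfected with a TEAD-responsive element luciferase reporter, plated onto pre-diluted compounds and incubated 24 h at 37 °C/5% CO2. Luminescence read after SteadyLite addition; % inhibition from RLU relative to vehicle (0%) and a positive control inhibitor (100%), giving IC50.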

SMILES	IC50 [µM]
FC(F)(F)c1ccc(N2CC(C3CC(Br)=NO3)Cc3ccccc32)cc1 (single isomer, unassigned) [Cpd. No. 194(Dia2)-En1, 3-bromo-5-(1-(4-(trifluoromethyl)phenyl)-1,2,3,4-tetrahydroquinolin-3-yl)-4,5-dihydroisoxazole]	1 to 20
C=CC(=O)NCC1Cc2c(CC(=O)O)cccc2N(c2ccc(C(F)(F)F)cc2)C1 (stereo not shown) [Cpd. No. 161-En1, 2-(3-(acrylamidomethyl)-1-(4-(trifluoromethyl)phenyl)-1,2,3,4-tetrahydroquinolin-5-yl)acetic acid]	> 20

same assay, conditions: Homo sapiens, HEK-293T, 24 h, Hek293T cells transiently transfected with TEAD-responsive element luciferase reporter; 24 hours incubation

SMILES	IC50 [µM]
C=CC(=O)NC1Cc2ccccc2N(C(=O)c2ccccc2)C1 (stereo not shown) [compound 172, N-(1-benzoyl-1,2,3,4-tetrahydroquinolin-3-yl)acrylamide]	> 20
C=CC(=O)NCC1Cc2ccccc2N(c2ccc(C(F)(F)F)cn2)C1 (stereo not shown) [compound 095]	< 1
C=CC(=O)NCC1Cc2ccccc2N(c2ccc(SC(F)(F)F)cc2)C1 (stereo not shown) [compound 114, N-((1-(4-((trifluoromethyl)thio)phenyl)-1,2,3,4-tetrahydroquinolin-3-yl)methyl)acrylamide]	< 1
C=CC(=O)NC1Cc2ccccc2N(S(=O)(=O)c2cccc(C(F)(F)F)c2)C1 (stereo not shown) [compound 186, N-(1-((3-(trifluoromethyl)phenyl)sulfonyl)-1,2,3,4-tetrahydroquinolin-3-yl)acrylamide]	< 1
C=CS(=O)(=O)NC1Cc2ccccc2N(c2ccc(C(F)(F)F)cc2)C1 (stereo not shown) [compound 048, N-(1-(4-(trifluoromethyl)phenyl)-1,2,3,4-tetrahydroquinolin-3-yl)ethenesulfonamide]	< 1
C=CC(=O)NCC1Cc2ccccc2N(c2ccc(C(F)(F)F)nc2)C1 (stereo not shown) [compound 094, N-((1-(6-(trifluoromethyl)pyridin-3-yl)-1,2,3,4-tetrahydroquinolin-3-yl)methyl)acrylamide]	< 1
C=CC(=O)NC1Cc2c(CC(=O)O)cccc2N(c2ccc(C(F)(F)F)cc2)C1 (stereo not shown) [compound 162, 2-(3-acrylamido-1-(4-(trifluoromethyl)phenyl)-1,2,3,4-tetrahydroquinolin-5-yl)acetic acid]	> 20
C=CC(=O)NCC1Cc2ccccc2N(c2ccc(C(C)C)cc2)C1 (stereo not shown) [compound 087, N-((1-(4-isopropylphenyl)-1,2,3,4-tetrahydroquinolin-3-yl)methyl)acrylamide]	< 1
CCC(=O)NC1Cc2c(Nc3ccccc3)cccc2N(c2ccc(C(F)(F)F)cc2)C1 (stereo not shown) [compound 071, N-(5-(phenylamino)-1-(4-(trifluoromethyl)phenyl)-1,2,3,4-tetrahydroquinolin-3-yl)propionamide]	1 to 20
C=CC(=O)NCC1Cc2c(C(=O)NS(C)(=O)=O)cccc2N(c2ccc(C(F)(F)F)cc2)C1 (stereo not shown) [compound 157, 3-(acrylamidomethyl)-N-(methylsulfonyl)-1-(4-(trifluoromethyl)phenyl)-1,2,3,4-tetrahydroquinoline-5-carboxamide]	> 20
C=CC(=O)NCC1Cc2ccccc2N(c2ccc(C(=O)NC)cc2)C1 (stereo not shown) [compound 100, 4-(3-(acrylamidomethyl)-3,4-dihydroquinolin-1(2H)-yl)—N-methylbenzamide]	> 20
C=CC(=O)NCC1CCc2ccccc2N1Cc1cccc(C(F)(F)F)c1 (stereo not shown) [compound 190, N-((1-(3-(trifluoromethyl)benzyl)-1,2,3,4-tetrahydroquinolin-2-yl)methyl)acrylamide]	< 1
C=CC(=O)NC1Cc2ccccc2N(c2cnc(C(F)(F)F)nc2)C1 (stereo not shown) [compound 031, N-(1-(2-(trifluoromethyl)pyrimidin-5-yl)-1,2,3,4-tetrahydroquinolin-3-yl)acrylamide]	< 1
C=CC(=O)NCC1Cc2ccccc2N(c2ccc(-c3ccccc3)cc2)C1 (stereo not shown) [compound 092, N-((1-([1,1′-biphenyl]-4-yl)-1,2,3,4-tetrahydroquinolin-3-yl)methyl)acrylamide]	< 1
